The values that follow come from patent US6479435B1, “Diaryl ethers and processes for their preparation and herbicidal and desiccant compositions containing them” (ISK Americas Incorporated, priority 1997, dated 2002).

What all share (assay type): in vivo
Data set [1] deals with upland rice (Oryza sp., var.Tebonnet, RICE). The data set can be described thus: Pre-emerge greenhouse test, crop damage rating. Conditions: 500 g ai/ha, 14 days after application, rating scale 0-100. The source says:
(§1) A standard greenhouse herbicide activity screening system was used to evaluate the herbicidal efficacy and crop safety of these test compounds. Six broadleaf weed species including redroot pigweed (Amaranthus retroflexus, AMARE), velvetleaf (Abutilon theophrasti, ABUTH), sicklepod (Cassia obtusifolia, CASOB), ivyleaf morningglory (Ipomoea hederacea, IPOHE), lambsquarters (Chenopodium album, CHEAL) and common ragweed (Ambrosia artemisiifolia L., AMBEL) were used as test species. Four grass weed species including green foxtail (Setaria viridis, SETVI), barnyardgrass (Echinochloa crusgalli, ECHCG), Johnsongrass (Sorghum halepense, SORHA), and large crabgrass (Digitaria sanguinalis, DIGSA) were also used. In addition, three crop species, field corn (Zea mays L., var. Dekalb 535, CORN), soybean (Glycine max L., var. Pella 86, SOY), and upland rice (Oryza sp., var.Tebonnet, RICE) were included.
(§2) All plants were grown in 10 cm square plastic pots which were filled with a sandy loam soil mix. For preemerge tests, seeds were planted one day prior to application of the test compounds. Immediately after application, test units of the pre-emerge applications were watered at the soil surface to incorporate the test materials. Subsequently, these test units were bottom-watered.
(§3) All test compounds were dissolved in acetone and applied to the test units in a volume of 187 l/ha. Test materials were applied at rates ranging from 125 g ai/ha to 1000 g ai/ha using a track sprayer equipped with a TJ8001E even flow flat fan spray nozzle. Plants were arranged on a shelf so that the top of the canopy (post-emerge) or top of the soil surface (pre-emerge) was 40-45 cm below the nozzle. Pressurized air was used to force the test solution through the nozzle as it was mechanically advanced (via electrically driven chain drive) over the top of all test plants/pots. This application simulates a typical commercial field herbicide application.
(§4) At 14 days after application of the test materials, phytotoxicity ratings were recorded. A rating scale of 0-100 was used as previously described in Research Methods in Weed Science, 2nd edition, B. Truelove, Ed., Southern Weed Science Society, Auburn University, Auburn, Ala., 1977. Briefly, “0” corresponds to no damage and “100” corresponds to complete death of all plants in the test unit. This scale was used both to determine efficacy against weed species and damage to crop species. Herbicide activity data for various compounds of this invention, which are shown by compound number in Tables 1-9, are shown in Tables 13 and 14.

Data set [2] relates to field corn (Zea mays L., var. Dekalb 535, CORN). The data set can be described thus: Pre-emerge greenhouse test, crop damage rating. The settings on record: 500 g ai/ha, 14 days after application, rating scale 0-100.
Source text: as §1, §2, §3, §4

The test system of data set [3] is lambsquarters (Chenopodium album, CHEAL). The data set can be described thus: Post-emerge greenhouse herbicide test, phytotoxicity rating. The settings on record: 500 g al/ha, 14 days after application.
Source text: as §1, §3
(§5) In the post-emerge test, a commercial non-ionic surfactant was also included (0.25% v/v) to enhance wetting of the leaf surfaces Qf target plants at rates ranging from 63 g ai/ha to 1000 g ai/ha. For post-emerge tests, seeds were planted 8-21 days prior to the test to allow emergence and good foliage development prior to application of the test substances. At the time of the post-emerge application, plants of all species were usually at the 2-3 leaf stage of development. Post-emerge test units were always bottom-watered.
as §4

For data set [4], the system named is ivyleaf morningglory (Ipomoea hederacea, IPOHE). The data set is described as above. The settings on record: 500 g al/ha, 14 days after application.
Source text: as §1, §3, §5, §4

Data set [5] deals with Johnsongrass (Sorghum halepense, SORHA). The data set is described as above. Conditions: 500 g al/ha, 14 days after application.
Source text: as §1, §3, §5, §4

Data set [6] concerns redroot pigweed (Amaranthus retroflexus, AMARE). The description is as above. Conditions: 500 g al/ha, 14 days after application.
Source text: as §1, §3, §5, §4

For data set [7], the system named is velvetleaf (Abutilon theophrasti, ABUTH). The data set is described as above. Conditions: 500 g al/ha, 14 days after application.
Source text: as §1, §3, §5, §4

Data set [8] has as its system sicklepod (Cassia obtusifolia, CASOB). Described as above. The settings on record: 500 g al/ha, 14 days after application.
Source text: as §1, §3, §5, §4

Data set [9] has as its system barnyardgrass (Echinochloa crusgalli, ECHCG). Described as above. The settings on record: 500 g al/ha, 14 days after application.
Source text: as §1, §3, §5, §4

For data set [10], the system named is green foxtail (Setaria viridis, SETVI). The data set is described as above. The settings on record: 500 g al/ha, 14 days after application.
Source text: as §1, §3, §5, §4

In data set [11] the test system is large crabgrass (Digitaria sanguinalis, DIGSA). The data set is described as above. The settings on record: 500 g al/ha, 14 days after application.
Source text: as §1, §3, §5, §4

For data set [12], the system named is soybean (Glycine max L., var. Pella 86, SOY). Nature of the data set: Post-emerge greenhouse test, crop damage rating. Conditions: 500 g al/ha, 14 days after application.
Source text: as §1, §3, §5, §4

Data set [13] has the same test system. The data set can be described thus: Pre-emerge greenhouse test, crop damage rating. The settings on record: 500 g ai/ha, 14 days after application, rating scale 0-100.
Source text: as §1, §2, §3, §4

Data set [14] deals with upland rice (Oryza sp., var.Tebonnet, RICE). Nature of the data set: Post-emerge greenhouse test, crop damage rating. Conditions: 500 g al/ha, 14 days after application.
Source text: as §1, §3, §5, §4

Data set [15] has as its system field corn (Zea mays L., var. Dekalb 535, CORN). Nature of the data set: Post-emerge greenhouse test, crop damage rating. The settings on record: 500 g al/ha, 14 days after application.
Source text: as §1, §3, §5, §4

Data set [16] deals with lambsquarters (Chenopodium album, CHEAL). Nature of the data set: Pre-emerge greenhouse herbicide test, phytotoxicity rating. Conditions: 500 g ai/ha, 14 days after application, rating scale 0-100.
Source text: as §1, §2, §3, §4

For data set [17], the system named is ivyleaf morningglory (Ipomoea hederacea, IPOHE). Described as above. The settings on record: 500 g ai/ha, 14 days after application, rating scale 0-100.
Source text: as §1, §2, §3, §4

Data set [18] deals with Johnsongrass (Sorghum halepense, SORHA). The data set is described as above. The settings on record: 500 g ai/ha, 14 days after application, rating scale 0-100.
Source text: as §1, §2, §3, §4

For data set [19], the system named is redroot pigweed (Amaranthus retroflexus, AMARE). The data set is described as above. Conditions: 500 g ai/ha, 14 days after application, rating scale 0-100.
Source text: as §1, §2, §3, §4

The subject of data set [20] is velvetleaf (Abutilon theophrasti, ABUTH). The description is as above. Conditions: 500 g ai/ha, 14 days after application, rating scale 0-100.
Source text: as §1, §2, §3, §4

For data set [21], the system named is sicklepod (Cassia obtusifolia, CASOB). The data set is described as above. Conditions: 500 g ai/ha, 14 days after application, rating scale 0-100.
Source text: as §1, §2, §3, §4

Data set [22] has as its system barnyardgrass (Echinochloa crusgalli, ECHCG). The description is as above. The settings on record: 500 g ai/ha, 14 days after application, rating scale 0-100.
Source text: as §1, §2, §3, §4

For data set [23], the system named is green foxtail (Setaria viridis, SETVI). The description is as above. The settings on record: 500 g ai/ha, 14 days after application, rating scale 0-100.
Source text: as §1, §2, §3, §4

In data set [24] the test system is large crabgrass (Digitaria sanguinalis, DIGSA). The description is as above. Conditions: 500 g ai/ha, 14 days after application, rating scale 0-100.
Source text: as §1, §2, §3, §4

With `CCN1CC(=O)N(c2cc(Oc3ncccc3C(F)(F)F)c(Cl)cc2F)C1=O` [Compound 8-1, 3-[4-chloro-2-fluoro-5-(trifluoromethyl-2-pyridyloxy)phenyl]-1-ethylimidazolidine-2,4-dione], the “crop damage rating RICE” value in data set [1] is listed as 30. In [2], the “crop damage rating CORN” value was determined as 0. The “CHEAL phytotoxicity rating (0-100)” value in data set [3] is 85. The “IPOHE phytotoxicity rating (0-100)” value in data set [4] is on record as 70. The “SORHA phytotoxicity rating (0-100)” value in data set [5] was determined as 0. In addition, the “AMARE phytotoxicity rating (0-100)” value in [6] amounted to 40. The “ABUTH phytotoxicity rating (0-100)” value in data set [7] was 90. Besides, the “CASOB phytotoxicity rating (0-100)” value in data set [8] turned out to be 30. Also, the “ECHCG phytotoxicity rating (0-100)” value in data set [9] is 0. The “SETVI phytotoxicity rating (0-100)” value in data set [10] is listed as 10. Besides, the “DIGSA phytotoxicity rating (0-100)” value in data set [11] was determined as 0. Besides, in [12], the “SOY crop damage rating (0-100)” value was 50. Also, the “crop damage rating SOY” value in data set [13] is listed as 0. Moreover, the “RICE crop damage rating (0-100)” value in [14] is given as 0. Further, the “CORN crop damage rating (0-100)” value in [15] is recorded as 0. For the same compound, the “phytotoxicity rating CHEAL” value in [16] was found to be 100. Also, the “phytotoxicity rating IPOHE” value in [17] is recorded as 30. The “phytotoxicity rating SORHA” value in data set [18] stood at 60. Also, in data set [19], the “phytotoxicity rating AMARE” value is reported as 100. Further, the “phytotoxicity rating ABUTH” value in data set [20] came out at 95. Further, in data set [21], the “phytotoxicity rating CASOB” value came to 70. The “phytotoxicity rating ECHCG” value in data set [22] stood at 40. Moreover, the “phytotoxicity rating SETVI” value in [23] is 85. Moreover, the “phytotoxicity rating DIGSA” value in data set [24] was determined as 100.
